Assay results from the supplement of paper PMC10307832.

How the values were obtained:
Experiment in all cases: relative viability (nuclei count vs DMSO), 5 days (fraction); higher = more cells survive
Omipalisib = compound: COc1ncc(-c2ccc3nccc(-c4ccnnc4)c3c2)cc1NS(=O)(=O)c1ccc(F)cc1F [Omipalisib]
Summary of the method: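 Hoechst staining, done together with fixation and permeabilisation, marked nuclei for 4× imaging and MetaXpress counting. This followed 5 days without medium change after lung cancer cell lines, kept overnight at 37 °C in 1536-well plates, were pinned with five library-drug doses (not always all listed) spaced by √10 on vehicle-anchored plates. Viability is the ratio of treated-well to vehicle-well nuclei, expressed as a median across plates. Plates passed only at control CV below 25% with at least one doubling.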

Omipalisib + Tozasertib = compound: COc1ncc(-c2ccc3nccc(-c4ccnnc4)c3c2)cc1NS(=O)(=O)c1ccc(F)cc1F [Omipalisib] + Cc1cc(Nc2cc(N3CCN(C)CC3)nc(Sc3ccc(NC(=O)C4CC4)cc3)n2)n[nH]1 [Tozasertib] (partner 0.1 µM)
Summary of the method: (§1)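 Relative viability divides the nuclei count in treated wells by that in vehicle wells. Lung cancer cell lines were seeded in 1536-well plates, dosed by pin tool the next day, and fixed and stained after 5 days in one step with final 0.05% Triton X-100, 1% formaldehyde and 1 ug/ml Hoechst. Dosing was a single drug or a fixed anchor-drug dose plus five library-drug doses (not always all listed) in √10 steps, and values are medians of duplicate plates imaged at 4×.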

Omipalisib + Phenformin = compound: COc1ncc(-c2ccc3nccc(-c4ccnnc4)c3c2)cc1NS(=O)(=O)c1ccc(F)cc1F [Omipalisib] + N=C(N)NC(=N)NCCc1ccccc1 [Phenformin] (partner 250 µM)
Summary of the method: as §1

Omipalisib + OSI-027 = compound: COc1ncc(-c2ccc3nccc(-c4ccnnc4)c3c2)cc1NS(=O)(=O)c1ccc(F)cc1F [Omipalisib] + COc1cccc2cc(-c3nc([C@H]4CC[C@H](C(=O)O)CC4)n4ncnc(N)c34)[nH]c12 [OSI-027] (partner 0.5 µM)
Summary of the method: as §1

Omipalisib + Foretinib = compound: COc1ncc(-c2ccc3nccc(-c4ccnnc4)c3c2)cc1NS(=O)(=O)c1ccc(F)cc1F [Omipalisib] + COc1cc2c(Oc3ccc(NC(=O)C4(C(=O)Nc5ccc(F)cc5)CC4)cc3F)ccnc2cc1OCCCN1CCOCC1 [Foretinib] (partner 0.25 µM)
Summary of the method: as §1

Omipalisib + Luminespib = compound: COc1ncc(-c2ccc3nccc(-c4ccnnc4)c3c2)cc1NS(=O)(=O)c1ccc(F)cc1F [Omipalisib] + CCNC(=O)c1noc(-c2cc(C(C)C)c(O)cc2O)c1-c1ccc(CN2CCOCC2)cc1 [Luminespib] (partner 0.01 µM)
Summary of the method: as §1

Omipalisib + Dasatinib = compound: COc1ncc(-c2ccc3nccc(-c4ccnnc4)c3c2)cc1NS(=O)(=O)c1ccc(F)cc1F [Omipalisib] + Cc1nc(Nc2ncc(C(=O)Nc3c(C)cccc3Cl)s2)cc(N2CCN(CCO)CC2)n1 [Dasatinib] (partner 0.075 µM)
Summary of the method: as §1

Omipalisib + Palbociclib = compound: COc1ncc(-c2ccc3nccc(-c4ccnnc4)c3c2)cc1NS(=O)(=O)c1ccc(F)cc1F [Omipalisib] + CC(=O)c1c(C)c2cnc(Nc3ccc(N4CCNCC4)cn3)nc2n(C2CCCC2)c1=O [Palbociclib] (partner 0.5 µM)
Summary of the method: as §1

Omipalisib + Olaparib = compound: COc1ncc(-c2ccc3nccc(-c4ccnnc4)c3c2)cc1NS(=O)(=O)c1ccc(F)cc1F [Omipalisib] + O=C(c1cc(Cc2n[nH]c(=O)c3ccccc23)ccc1F)N1CCN(C(=O)C2CC2)CC1 [Olaparib] (partner 8 µM)
Summary of the method: as §1

Omipalisib + Decitabine = compound: COc1ncc(-c2ccc3nccc(-c4ccnnc4)c3c2)cc1NS(=O)(=O)c1ccc(F)cc1F [Omipalisib] + Nc1ncn([C@H]2C[C@H](O)[C@@H](CO)O2)c(=O)n1 [Decitabine] (partner 2 µM)
Summary of the method: as §1

Omipalisib + Trametinib = compound: COc1ncc(-c2ccc3nccc(-c4ccnnc4)c3c2)cc1NS(=O)(=O)c1ccc(F)cc1F [Omipalisib] + CC(=O)Nc1cccc(-n2c(=O)n(C3CC3)c(=O)c3c(Nc4ccc(I)cc4F)n(C)c(=O)c(C)c32)c1 [Trametinib] (partner 0.02 µM)
Summary of the method: as §1

Omipalisib + Pemetrexed = compound: COc1ncc(-c2ccc3nccc(-c4ccnnc4)c3c2)cc1NS(=O)(=O)c1ccc(F)cc1F [Omipalisib] + Nc1nc2[nH]cc(CCc3ccc(C(=O)N[C@@H](CCC(=O)O)C(=O)O)cc3)c2c(=O)[nH]1 [Pemetrexed] (partner 0.2 µM)
Summary of the method: as §1

Omipalisib + AZD7762 = compound: COc1ncc(-c2ccc3nccc(-c4ccnnc4)c3c2)cc1NS(=O)(=O)c1ccc(F)cc1F [Omipalisib] + NC(=O)Nc1cc(-c2cccc(F)c2)sc1C(=O)N[C@H]1CCCNC1 [AZD7762] (partner 0.2 µM)
Summary of the method: as §1

Omipalisib + Vorinostat = compound: COc1ncc(-c2ccc3nccc(-c4ccnnc4)c3c2)cc1NS(=O)(=O)c1ccc(F)cc1F [Omipalisib] + O=C(CCCCCCC(=O)Nc1ccccc1)NO [Vorinostat] (partner 1 µM)
Summary of the method: as §1

Omipalisib + Navitoclax = compound: COc1ncc(-c2ccc3nccc(-c4ccnnc4)c3c2)cc1NS(=O)(=O)c1ccc(F)cc1F [Omipalisib] + CC1(C)CCC(c2ccc(Cl)cc2)=C(CN2CCN(c3ccc(C(=O)NS(=O)(=O)c4ccc(N[C@H](CCN5CCOCC5)CSc5ccccc5)c(S(=O)(=O)C(F)(F)F)c4)cc3)CC2)C1 [Navitoclax] (partner 0.5 µM)
Summary of the method: as §1

Omipalisib + Alpelisib = compound: COc1ncc(-c2ccc3nccc(-c4ccnnc4)c3c2)cc1NS(=O)(=O)c1ccc(F)cc1F [Omipalisib] + Cc1nc(NC(=O)N2CCC[C@H]2C(N)=O)sc1-c1ccnc(C(C)(C)C(F)(F)F)c1 [Alpelisib] (partner 2 µM)
Summary of the method: as §1

Omipalisib + Crizotinib = compound: COc1ncc(-c2ccc3nccc(-c4ccnnc4)c3c2)cc1NS(=O)(=O)c1ccc(F)cc1F [Omipalisib] + C[C@@H](Oc1cc(-c2cnn(C3CCNCC3)c2)cnc1N)c1c(Cl)ccc(F)c1Cl [Crizotinib] (partner 1 µM)
Summary of the method: as §1

Omipalisib + Bortezomib = compound: COc1ncc(-c2ccc3nccc(-c4ccnnc4)c3c2)cc1NS(=O)(=O)c1ccc(F)cc1F [Omipalisib] + CC(C)C[C@H](NC(=O)[C@H](Cc1ccccc1)NC(=O)c1cnccn1)B(O)O [Bortezomib] (partner 0.002 µM)
Summary of the method: as §1

Omipalisib + Lapatinib = compound: COc1ncc(-c2ccc3nccc(-c4ccnnc4)c3c2)cc1NS(=O)(=O)c1ccc(F)cc1F [Omipalisib] + CS(=O)(=O)CCNCc1ccc(-c2ccc3ncnc(Nc4ccc(OCc5cccc(F)c5)c(Cl)c4)c3c2)o1 [Lapatinib] (partner 2 µM)
Summary of the method: as §1

Omipalisib + Pictilisib = compound: COc1ncc(-c2ccc3nccc(-c4ccnnc4)c3c2)cc1NS(=O)(=O)c1ccc(F)cc1F [Omipalisib] + CS(=O)(=O)N1CCN(Cc2cc3nc(-c4cccc5[nH]ncc45)nc(N4CCOCC4)c3s2)CC1 [Pictilisib] (partner 1 µM)
Summary of the method: as §1

Omipalisib + Linsitinib = compound: COc1ncc(-c2ccc3nccc(-c4ccnnc4)c3c2)cc1NS(=O)(=O)c1ccc(F)cc1F [Omipalisib] + C[C@]1(O)C[C@@H](c2nc(-c3ccc4ccc(-c5ccccc5)nc4c3)c3c(N)nccn32)C1 [Linsitinib] (partner 1 µM)
Summary of the method: as §1

## NCI-H1623
Omipalisib; 0.0003 µM
  relative viability: 0.855
Omipalisib; 0.003 µM
  relative viability: 0.553
Omipalisib; 0.03 µM
  relative viability: 0.359
Omipalisib + Tozasertib; first compound 0.0003 µM
  relative viability: 0.409
Omipalisib + Tozasertib; first compound 0.003 µM
  relative viability: 0.354
Omipalisib + Tozasertib; first compound 0.03 µM
  relative viability: 0.273
Omipalisib + Phenformin; first compound 0.0003 µM
  relative viability: 0.479
Omipalisib + Phenformin; first compound 0.003 µM
  relative viability: 0.607
Omipalisib + Phenformin; first compound 0.03 µM
  relative viability: 0.247
Omipalisib + OSI-027; first compound 0.0003 µM
  relative viability: 0.398
Omipalisib + OSI-027; first compound 0.003 µM
  relative viability: 0.338
Omipalisib + OSI-027; first compound 0.03 µM
  relative viability: 0.294
Omipalisib + Foretinib; first compound 0.0003 µM
  relative viability: 0.76
Omipalisib + Foretinib; first compound 0.003 µM
  relative viability: 0.727
Omipalisib + Foretinib; first compound 0.03 µM
  relative viability: 0.316
Omipalisib + Luminespib; first compound 0.0003 µM
  relative viability: 0.399
Omipalisib + Luminespib; first compound 0.003 µM
  relative viability: 0.287
Omipalisib + Luminespib; first compound 0.03 µM
  relative viability: 0.292
Omipalisib + Dasatinib; first compound 0.0003 µM
  relative viability: 0.488
Omipalisib + Dasatinib; first compound 0.003 µM
  relative viability: 0.466
Omipalisib + Dasatinib; first compound 0.03 µM
  relative viability: 0.266

## NCI-H1648
Omipalisib; 0.0003 µM
  relative viability: 0.913
Omipalisib; 0.003 µM
  relative viability: 0.504
Omipalisib; 0.03 µM
  relative viability: 0.278
Omipalisib + Palbociclib; first compound 0.0003 µM
  relative viability: 0.277
Omipalisib + Palbociclib; first compound 0.003 µM
  relative viability: 0.23
Omipalisib + Palbociclib; first compound 0.03 µM
  relative viability: 0.29
Omipalisib + Tozasertib; first compound 0.0003 µM
  relative viability: 0.322
Omipalisib + Tozasertib; first compound 0.003 µM
  relative viability: 0.408
Omipalisib + Tozasertib; first compound 0.03 µM
  relative viability: 0.184
Omipalisib + Olaparib; first compound 0.0003 µM
  relative viability: 0.384
Omipalisib + Olaparib; first compound 0.003 µM
  relative viability: 0.392
Omipalisib + Olaparib; first compound 0.03 µM
  relative viability: 0.202
Omipalisib + Decitabine; first compound 0.0003 µM
  relative viability: 0.445
Omipalisib + Decitabine; first compound 0.003 µM
  relative viability: 0.363
Omipalisib + Decitabine; first compound 0.03 µM
  relative viability: 0.356
Omipalisib + OSI-027; first compound 0.0003 µM
  relative viability: 0.253
Omipalisib + OSI-027; first compound 0.003 µM
  relative viability: 0.291
Omipalisib + OSI-027; first compound 0.03 µM
  relative viability: 0.26
Omipalisib + Trametinib; first compound 0.0003 µM
  relative viability: 0.362
Omipalisib + Trametinib; first compound 0.003 µM
  relative viability: 0.407
Omipalisib + Trametinib; first compound 0.03 µM
  relative viability: 0.249
Omipalisib + Pemetrexed; first compound 0.0003 µM
  relative viability: 0.754
Omipalisib + Pemetrexed; first compound 0.003 µM
  relative viability: 0.619
Omipalisib + Pemetrexed; first compound 0.03 µM
  relative viability: 0.413
Omipalisib + AZD7762; first compound 0.0003 µM
  relative viability: 0.644
Omipalisib + AZD7762; first compound 0.003 µM
  relative viability: 0.843
Omipalisib + AZD7762; first compound 0.03 µM
  relative viability: 0.386
Omipalisib + Vorinostat; first compound 0.0003 µM
  relative viability: 0.548
Omipalisib + Vorinostat; first compound 0.003 µM
  relative viability: 0.396
Omipalisib + Vorinostat; first compound 0.03 µM
  relative viability: 0.228

## NCI-H1703
Omipalisib; 0.0003 µM
  relative viability: 0.777
Omipalisib; 0.003 µM
  relative viability: 0.572
Omipalisib; 0.03 µM
  relative viability: 0.234
Omipalisib + Navitoclax; first compound 0.0003 µM
  relative viability: 0.713
Omipalisib + Navitoclax; first compound 0.003 µM
  relative viability: 0.651
Omipalisib + Navitoclax; first compound 0.03 µM
  relative viability: 0.24
Omipalisib + Alpelisib; first compound 0.0003 µM
  relative viability: 0.428
Omipalisib + Alpelisib; first compound 0.003 µM
  relative viability: 0.273
Omipalisib + Alpelisib; first compound 0.03 µM
  relative viability: 0.179
Omipalisib + Crizotinib; first compound 0.0003 µM
  relative viability: 0.707
Omipalisib + Crizotinib; first compound 0.003 µM
  relative viability: 0.418
Omipalisib + Crizotinib; first compound 0.03 µM
  relative viability: 0.128
Omipalisib + Bortezomib; first compound 0.0003 µM
  relative viability: 0.323
Omipalisib + Bortezomib; first compound 0.003 µM
  relative viability: 0.268
Omipalisib + Bortezomib; first compound 0.03 µM
  relative viability: 0.153
Omipalisib + Olaparib; first compound 0.0003 µM
  relative viability: 0.28
Omipalisib + Olaparib; first compound 0.003 µM
  relative viability: 0.279
Omipalisib + Olaparib; first compound 0.03 µM
  relative viability: 0.214
Omipalisib + Lapatinib; first compound 0.0003 µM
  relative viability: 0.879
Omipalisib + Lapatinib; first compound 0.003 µM
  relative viability: 0.715
Omipalisib + Lapatinib; first compound 0.03 µM
  relative viability: 0.293
Omipalisib + Pictilisib; first compound 0.0003 µM
  relative viability: 0.218
Omipalisib + Pictilisib; first compound 0.003 µM
  relative viability: 0.238
Omipalisib + Pictilisib; first compound 0.03 µM
  relative viability: 0.202
Omipalisib + Linsitinib; first compound 0.0003 µM
  relative viability: 0.596
Omipalisib + Linsitinib; first compound 0.003 µM
  relative viability: 0.298
Omipalisib + Linsitinib; first compound 0.03 µM
  relative viability: 0.171
Omipalisib + Foretinib; first compound 0.0003 µM
  relative viability: 0.314
Omipalisib + Foretinib; first compound 0.003 µM
  relative viability: 0.37
Omipalisib + Foretinib; first compound 0.03 µM
  relative viability: 0.301
Omipalisib + AZD7762; first compound 0.0003 µM
  relative viability: 0.152
Omipalisib + AZD7762; first compound 0.003 µM
  relative viability: 0.115
Omipalisib + AZD7762; first compound 0.03 µM
  relative viability: 0.111
